Tests used:
Solubility in methanol = format: physicochemical
SH-SY5Y cells = assay: Neuroprotection against ferrous sulfate/L-ascorbic acid toxicity, MTT reduction; format: cell-based, human; details: Fe/Asc 500 μM/5 mM, 24 h after 1 h pre-treatment, compounds: 16 2.5 µM, 17 0.5 µM, 14 and 15 0.2 µM, 19 and 18 1 µM
Experimental: The neuroprotective effect of TAC-PhBTA conjugates was evaluated using SH-SY5Y cells treated with Aβ1–42 peptides or ascorbate/iron. For each compound, a dose-response curve was performed to select a non-toxic concentration in order to analyze its neuroprotective effect (Figure 3).
SH-SY5Y human neuroblastoma cell line (ATCC-CRL-2266) grown in Dulbecco’s modified Eagle’s medium (DMEM) obtained from Gibco-Invitrogen (Life Technologies Ltd., Liverpool, UK) with 10% heat inactivated fetal calf serum, containing 50 U/mL penicillin, and 50 μg/mL streptomycin, under a humidified atmosphere of 95% air-5% CO2 at 37 °C. Cells were plated at 0.12 × 10^6 cells/mL for cell viability assay. The tested compounds (16, 17, 14, 15, 19 and 18) were dissolved in DMSO at a concentration of 25 mM and aliquots were stored at −20 °C. We performed a dose-response screening (from 0.2 μM to 5 μM) in order to choose the highest non-toxic concentration. […]
Cell viability was determined by a MTT (3-(4,5-dimethylthiazol-2-yl)-2,5-diphenyltetrazolium bromide) reduction test. […] The absorbance was measured at 570 nm. Cell reduction ability was expressed as a percentage of untreated control cells.
All data were expressed as mean ± S.E.M. of at least three independent experiments performed in duplicates. […]

For COc1cc(-c2nc3ccccc3s2)ccc1OCC(=O)NCCCNc1c2c(nc3ccccc13)CCCC2 [compound 16, 2-(4-(Benzo[d]thiazol-2-yl)-2-methoxyphenoxy)-N-(3-((1,2,3,4-tetrahydroacridin-9-yl)amino)propyl)acetamide], the Solubility in methanol (Solubility in methanol) was “soluble in methanol” and the “Neuroprotective effect against Asc/Fe toxicity (cell viability, MTT)” value (SH-SY5Y cells) was “statistical significant neuroprotective effect”.
